The test system of one assay is MuRF-1. In words: MuRF-1 mRNA expression (RT-PCR) in TNF-α-treated L6 myotubes. As to conditions: TNF-α 50 ng/ml alone, 6 hours. The class given is cell-based. Here is the method:
(§1) L6 myoblasts (ATCC) were seeded onto a 6-well plate at 2×10^5 cell/mL and then cultured in DMEM (Hyclone) containing 10% FBS (Hyclone). When the cell density reached about 80-85%, the L6 cells were differentiated into myotubes by removing the medium from the well and replacing with DMEM (Hyclone) containing 2% HS (Hyclone). The differentiation was conducted for a total of 6 days while replacing with a fresh medium every other day. After the differentiation, the Gynostemma pentaphyllum leaf extract of Examples or Comparative Example was dissolved in DMEM containing 50 ng/mL of TNF-α to a concentration of 40 μg/mL and treated to the cells. 6 hours later, total RNAs were isolated using a TRIzol reagent (Takara, Osaka, Japan). The isolated total RNAs were quantified using NanoDrop 1000 (Thermo Fisher Scientific Inc., Waltham, MA, USA). 16 μL of the quantified RNAs were mixed with a reverse transcriptase premix (ELPIS-Biotech) and cDNAs were synthesized under the condition of 55 minutes at 42° C. and 15 minutes at 70° C. using a PCR machine (Gene Amp PCR System 2700; Applied Biosystems, Foster City, CA, USA). […]

In the next assay the test system is Atrogin-1. In words: Atrogin-1 mRNA expression (RT-PCR) in TNF-α-treated L6 myotubes. As to conditions: TNF-α 50 ng/ml alone, 6 hours. The class given is cell-based. Here is the method:
as §1

Consider TNF-α, for which, in the assay with MuRF-1, the “MuRF-1 (% of control group)” value is given as 411.5 ± 32.7 % of control group. In addition, the “Atrogin-1 (% of control group)” value with Atrogin-1 is reported as 248.5 ± 26.4 % of control group.

The values above are taken from patent US12458677B2, “Method for preparing Gynostemma pentaphyllum leaf extract and Gynostemma pentaphyllum leaf extract prepared thereby” (BIONIC TRADING CORPORATION, priority 2022, dated 2025).
